Source: PubChem BioAssay AID1648 (Sanford-Burnham Center for Chemical Genomics, 2009)
Calls of active or inactive are those of the source. How the calls were made is not given here.

What follows are molecules tested against Serine/threonine-protein kinase mTOR (Homo sapiens) (UniProt P42345) (assay: binders of mTOR FRB domain, biophysical, NMR (AID 1648)). Details: NMR binding to FRB domain, chemical shift.
Chain of Serine/threonine-protein kinase mTOR (Homo sapiens) (P42345 2015-2114): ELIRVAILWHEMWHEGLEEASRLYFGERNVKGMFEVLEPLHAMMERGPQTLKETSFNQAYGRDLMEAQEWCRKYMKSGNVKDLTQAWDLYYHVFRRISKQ

SMILES	Kd
O=C1CSC(=O)N1CN1CCOCC1	> 4 mM (inactive)
NCC(O)c1ccc(O)cc1 (stereo not drawn)	> 4 mM (inactive)
Cc1ccc2[nH]c3nc(=S)[nH]nc3c2c1	> 4 mM (inactive)
COC(=O)[C@@H]1OC(=O)C2OC23[C@@]1(C)CCC1[C@]2(C)C(C[C@H](O)[C@]13C)C(C)(C)[C@H](OC(C)=O)C[C@@H]2OC(C)=O (stereo partly drawn)	> 4 mM (inactive)
N[C@@H](C(=O)O)[C@@H](O)[C@H](O)[C@H](O)CO	> 4 mM (inactive)
Nc1cccnc1Oc1ccc(F)cc1F	> 4 mM (inactive)
Cc1cc(C)c(NC(=O)CN2CCC(O)CC2)c(C)c1	> 4 mM (inactive)
Cc1nc(-c2cccc(-c3noc(C)n3)c2)no1	> 4 mM (inactive)
Cc1onc(-c2ccccc2)c1CO	> 4 mM (inactive)
CC(C)=CCC1=C(O)c2ccccc2C(=O)C1=O	> 4 mM (inactive)
COc1c(-c2coc3cc4c(cc3c2=O)CC(OC(C)=O)C(C)(C)O4)ccc2c1C=CC(C)(C)O2 (stereo not drawn)	> 4 mM (inactive)
O=c1c(O)c(-c2ccccc2)oc2cc(O)ccc12	> 4 mM (inactive)
Cc1ncoc1C(=O)Nc1ccccc1C(N)=O	> 4 mM (inactive)
CC1(C)Oc2ccc(N)cc2O1	> 4 mM (inactive)
COc1c(O)cc(O)cc1O	> 4 mM (inactive)
CC12CCCC(O)(C1)C1CC(C)(C)C1CC2 (stereo not drawn)	> 4 mM (inactive)
CC(CC(O)C1OC1(C)C)[C@@H]1CCC2(C)C3=CCC4C(C)(C)C(=O)CCC4(C)C3CC[C@@]12C (stereo partly drawn)	> 4 mM (inactive)
N#Cc1nc(N2CCCCC2)nc(N2CCOCC2)n1	> 4 mM (inactive)
S=c1[nH]c2cccnc2[nH]1	> 4 mM (inactive)
CP(C)(=O)c1cccc(C(=O)O)c1	> 4 mM (inactive)

SMILES	Kd
CC1=NN(c2ccc(C)cc2)C(=O)C1	> 4 mM (inactive)
COc1ccc2c(c1)[nH]c1c(C)nccc12	> 4 mM (inactive)
CC(=O)c1cc(C)ccc1O	> 4 mM (inactive)
OCC1CCN(Cc2ccccc2)CC1	> 4 mM (inactive)
COC(=O)C[C@H]1C2(C)CC34OC5(C)O[C@@]6([C@H](OC(C)=O)C(OC(C)=O)[C@]7(C)C(/C(=C(/O)C(C)C)C(=O)O[C@H]7c7ccoc7)[C@@]6(O5)[C@H](OC(C)=O)[C@@]3(O)C2OC(=O)C(C)C)[C@]14C (stereo partly drawn)	> 4 mM (inactive)
NC1=NC(=O)/C(=C\c2ccco2)S1	> 4 mM (inactive)
Nc1ncnc(Cl)c1[N+](=O)[O-]	> 4 mM (inactive)
CC(=O)c1sc(NC(=O)C=C(C)C)nc1C	> 4 mM (inactive)
O=c1[nH]cc(COCc2ccccc2)c(=O)[nH]1	> 4 mM (inactive)
CC1(C)C(=O)CC[C@@]2(C)C1C[C@@H](O)[C@@]1(C)C3=CC(=O)O[C@@H](c4ccoc4)[C@]3(C)CCC21 (stereo partly drawn)	> 4 mM (inactive)
Nc1nc(SCc2ccc3c(c2)OCO3)n[nH]1	> 4 mM (inactive)
Cc1onc(-c2ccc(F)cc2)c1C(=O)O	> 4 mM (inactive)
O=C(O)C1CSC(c2cc3ccccc3nc2Cl)N1 (stereo not drawn)	> 4 mM (inactive)
O=C(O)CCC(=O)NCc1cccnc1	> 4 mM (inactive)
Cc1cc(=O)oc2c1c(C)nn2CN1CCN(C)CC1	> 4 mM (inactive)
COc1cc(-c2coc3cc(O[C@@H]4O[C@H](CO)[C@@H](O)[C@H](O)[C@H]4O)c(OC)c(O)c3c2=O)cc(O)c1OC	> 4 mM (inactive)
Nc1cc(F)cc(F)c1	> 4 mM (inactive)
O=C(O)c1cccnc1-c1nc2ccccc2s1	> 4 mM (inactive)
c1cc(CNc2ccc3c(c2)OCCO3)ccn1	> 4 mM (inactive)
CC[C@@]1(O)C[C@H](O)c2c(cc3c(c2O)C(=O)c2c(O)ccc(O)c2C3=O)[C@H]1C(=O)OC	> 4 mM (inactive)

SMILES	Kd
O=C(O)C1CN2CCC1CC2 (stereo not drawn)	> 4 mM (inactive)
Cn1c(=O)c2c([nH]c(=O)n2C)n(C)c1=O	> 4 mM (inactive)
CCn1nnc2c(NCc3ccccn3)ncnc21	> 4 mM (inactive)
COC(=O)c1c(C)cc(OC(=O)c2c(C)cc(O)c(C=O)c2O)c(C)c1O	> 4 mM (inactive)
CC(=O)Nc1ccc2c(c1)n(C)c(=O)n2C	> 4 mM (inactive)
O=C(c1cccc(-n2cnnn2)c1)N1CCOCC1	> 4 mM (inactive)
Cc1ccc(C(=O)Nc2ccncc2)o1	> 4 mM (inactive)
S=c1nc2c(n[nH]1)[nH]c1ccccc12	> 4 mM (inactive)
Cc1oc2nc3c(c(=O)[nH]c(=O)n3C)n2c1C	> 4 mM (inactive)
CC1=NN2C(=N)/C(=C\c3cccs3)C(=O)N=C2S1	> 4 mM (inactive)
Nc1ccc(C2SCCS2)cc1	> 4 mM (inactive)
CN(c1ccccc1C(=O)N1CCCC1)S(C)(=O)=O	> 4 mM (inactive)
CCC(=O)OC1[C@@H]2CC3=C4CC(=O)O[C@@H](c5ccoc5)[C@]4(C)CCC3C(C)(C2=O)[C@@H](CC(=O)OC)C1(C)C (stereo partly drawn)	> 4 mM (inactive)
COc1ccc(NC(=O)c2ccc[n+]([O-])c2)cc1	> 4 mM (inactive)
Cn1c(SCCC(=O)O)nnc1-c1cccnc1	> 4 mM (inactive)
O=C(Nc1ccon1)c1csc2ccccc12	> 4 mM (inactive)
Cc1noc(C)c1C(=O)N1CCc2ccccc2C1	> 4 mM (inactive)
O=C(Nc1ccc2c(c1)OCO2)c1cccs1	> 4 mM (inactive)
